In PubChem BioAssay (NCI):
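Five compound concentrations were applied to cells in 96-well plates for 48 hours; endpoints were derived by simple linear interpolation of the resulting dose-response curve. Definition used: TGI = concentration required for complete inhibition of growth.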

Tests used:
Test in all cases: inhibition of tumour cell growth, NCI panel, 48 h
HS 578T breast = test system: HS 578T breast
RPMI-8226 leukemia = test system: RPMI-8226 leukemia
786-0 renal = test system: 786-0 renal
SW-620 colon = test system: SW-620 colon
HCT-116 colon = test system: HCT-116 colon
OVCAR-8 ovarian = test system: OVCAR-8 ovarian
MALME-3M melanoma = test system: MALME-3M melanoma
KM12 colon = test system: KM12 colon
EKVX NSCLC = test system: EKVX NSCLC
PC-3 prostate = test system: PC-3 prostate
SN12C renal = test system: SN12C renal
MCF7 breast = test system: MCF7 breast
MDA-N = test system: MDA-N
HOP-62 NSCLC = test system: HOP-62 NSCLC

Structure (SMILES) | TGI (HS 578T breast) | TGI (RPMI-8226 leukemia) | TGI (786-0 renal) | TGI (SW-620 colon) | TGI (HCT-116 colon) | TGI (OVCAR-8 ovarian) | TGI (MALME-3M melanoma) | TGI (KM12 colon) | TGI (EKVX NSCLC) | TGI (PC-3 prostate) | TGI (SN12C renal) | TGI (MCF7 breast) | TGI (MDA-N) | TGI (HOP-62 NSCLC)
COc1cc2c(cc1O)CC[n+]1cc3c(OC)c(OC)ccc3cc1-2 | > 100 µM | > 100 µM | > 100 µM | > 100 µM | > 100 µM | > 100 µM | > 100 µM | > 100 µM | > 100 µM | > 100 µM | > 100 µM | > 100 µM | > 100 µM | 
CCN(CC(=O)O)CC(=O)O | > 100 µM | > 100 µM | > 100 µM | > 100 µM | > 100 µM | > 100 µM | > 100 µM | > 100 µM | > 100 µM | > 100 µM | > 100 µM | > 100 µM | > 100 µM | > 100 µM
COc1cc2nc(-c3c(F)cccc3F)n(Cc3c(F)cccc3F)c2cc1Cc1c(F)cccc1F | > 100 µM | > 100 µM | > 100 µM | > 100 µM | > 100 µM | > 100 µM | > 100 µM | > 100 µM | > 100 µM | > 100 µM | > 100 µM | > 63.9 µM | > 100 µM | > 100 µM
COc1ccc(CN2C(=O)C(=O)N(C)C2=O)c2ccccc12 | > 10 µM | > 10 µM |  | > 10 µM | > 10 µM | > 10 µM | > 10 µM | > 10 µM | > 10 µM | > 10 µM | > 10 µM | > 10 µM | > 10 µM | > 10 µM
CC(C)Cc1c(C#N)c(C#N)c(N)n1Cc1ccccc1 | > 100 µM | > 100 µM | > 100 µM | > 100 µM | > 100 µM | > 100 µM | > 100 µM | > 100 µM | > 100 µM | > 100 µM | > 100 µM | > 100 µM | > 100 µM | > 100 µM
CC(C)(C)OC(=O)c1ccc(NCc2cc(O)ccc2O)cc1 | 18.6 µM | 13 µM | 5.38 µM | 14.5 µM | 16.1 µM | > 55.2 µM | 3.99 µM | 12.2 µM | 12 µM | 3.75 µM | 5.28 µM | 18.4 µM | 16.3 µM | 41.3 µM
O=CN(O)CC(=O)O | > 100 µM | > 100 µM | > 100 µM | > 100 µM | > 100 µM | > 100 µM | > 100 µM | > 100 µM | > 100 µM | > 100 µM | > 100 µM | > 100 µM | > 100 µM | > 100 µM
CCOC1NC(=O)c2ccccc21 (stereo not drawn) | > 100 µM | > 100 µM | > 100 µM | > 100 µM | > 100 µM | > 100 µM | > 100 µM | > 100 µM | > 100 µM | > 100 µM | > 100 µM | > 100 µM | > 100 µM | > 100 µM
O=c1c(Cc2ccccc2)c(-c2ccccc2)[nH]n1C1=NCCN1 | > 100 µM | > 100 µM | > 100 µM | > 100 µM | 66.7 µM | > 100 µM | > 100 µM | > 100 µM | > 100 µM | > 100 µM |  | > 100 µM | > 100 µM | > 100 µM
Cc1cccc(NC(Nc2cccc(C)c2)=C(C(Cl)=C(Cl)Cl)[N+](=O)[O-])c1 | 11.2 µM | > 100 µM | 44.3 µM | 34.2 µM | > 46.4 µM | 27.6 µM | 29 µM | 49.5 µM | > 59 µM | > 92.9 µM | 24 µM | > 100 µM | > 35.1 µM | 41.7 µM
COP(=O)(CC(=O)C1OC(OCc2ccccc2)C(OCc2ccccc2)C(OCc2ccccc2)C1OCc1ccccc1)OC (stereo not drawn) | > 100 µM |  | > 100 µM | > 100 µM | > 100 µM | > 100 µM | 94.5 µM | 37.6 µM | 50.4 µM | > 100 µM | 11.2 µM | 37.4 µM | 20.3 µM | > 100 µM
Cc1cn(C2CC(OC(c3ccccc3)(c3ccccc3)c3ccccc3)C(COC(c3ccccc3)(c3ccccc3)c3ccccc3)O2)c(=O)[nH]c1=O (stereo not drawn) | > 100 µM |  | > 100 µM | > 100 µM | > 100 µM | > 100 µM | > 100 µM | > 100 µM | > 100 µM | > 100 µM | > 100 µM | > 100 µM | > 100 µM | > 100 µM
Cc1cc(C)nc(NS(=O)(=O)c2ccc(Nc3c4ccccc4nc4c(C(=O)NCCO)cccc34)cc2)n1 | > 100 µM | 36.5 µM |  | > 100 µM |  | > 100 µM | 28.7 µM | 22.9 µM | > 100 µM | > 100 µM | > 100 µM | 42.8 µM | 69.6 µM | 71.3 µM
CCOP(=O)(OCC)c1cc(-c2ccccc2)ccc1N | > 100 µM | > 100 µM | > 100 µM | > 100 µM | > 100 µM | > 100 µM | > 100 µM | > 100 µM | > 100 µM | > 100 µM |  | > 100 µM | > 100 µM | > 100 µM
